Consider 15 molecules from patent US20240083892A1 (BISICHEM CO., LTD., priority 2021, published 2024).

In experiment [1] the target is T1, RIPK1 (Homo sapiens, UniProt Q13546).
T1 construct: endogenous in cells; host or cells: HT-29 (KCLB 30038)
T1 sequence (Q13546 1-671): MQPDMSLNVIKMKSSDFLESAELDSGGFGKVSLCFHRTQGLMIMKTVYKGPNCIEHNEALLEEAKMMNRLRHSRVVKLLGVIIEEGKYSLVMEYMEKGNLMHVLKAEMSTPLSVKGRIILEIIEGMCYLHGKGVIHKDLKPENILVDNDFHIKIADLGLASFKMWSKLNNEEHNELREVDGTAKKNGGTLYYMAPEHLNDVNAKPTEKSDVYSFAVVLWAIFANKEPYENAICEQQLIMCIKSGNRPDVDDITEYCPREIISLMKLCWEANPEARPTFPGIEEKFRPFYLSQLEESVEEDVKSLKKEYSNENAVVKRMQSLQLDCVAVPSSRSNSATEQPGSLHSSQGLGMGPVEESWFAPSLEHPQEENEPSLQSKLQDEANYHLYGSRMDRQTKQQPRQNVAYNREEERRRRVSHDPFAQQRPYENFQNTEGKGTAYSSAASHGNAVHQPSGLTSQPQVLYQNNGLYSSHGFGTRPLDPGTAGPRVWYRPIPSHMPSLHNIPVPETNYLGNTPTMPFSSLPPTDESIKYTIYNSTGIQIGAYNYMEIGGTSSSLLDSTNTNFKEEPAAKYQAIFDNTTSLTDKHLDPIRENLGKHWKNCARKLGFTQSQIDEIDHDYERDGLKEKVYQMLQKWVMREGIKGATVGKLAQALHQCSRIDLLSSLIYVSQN
As to the kind of experiment: Immunoblotting of TNFα induced phospho-RIPK1 (ser 166) levels. It is filed as cell-based. The conditions noted are these: HMC3 cells; Z-VAD-FMK, human TNFα 20 ng/ml, SM-164 100 nM; 7 h, serum free media; read-out: Cell-base RIPK1 activity: phspho-RIPK1 (Ser166). As for the experimental part:
(§1) Human colon carcinoma cell HT-29 (KCLB 30038), BV2 mouse microglial cell (cell was a kind gift from Dr. Nak-Yun Sung, Senior researcher at Korea Prime Pharmacy CO., LTD.) and human microglial cell HMC3 (ATCC® CRL-3304™). HT-29 cell was grown in Roswell Park Memorial Institute (RPMI) 1640, BV2 cell was grown in Dulbecco's Modified Eagle's Medium (DMEM) and HMC3 cell was grown in Minimum Essential Media Eagle (MEM) supplemented with 10% fetal bovine serum and 1% mixture of penicillin and streptomycin (Gibco). Cells were maintained at 37° C. in a humidified 5% CO2 atmosphere.
Biological activity of the compounds of RIPK1 inhibitor was determined by measuring their ability to inhibitor TNFα induced phospho-RIPK1 (ser 166) levels, phospho-RIPK3 levels, phospho-MLKL levels in HMC3 cells. Cells were pretreated with Z-VAD-FMK […]. After 30 min, human TNFα 20 ng/ml, SM-164 100 nM and RIPK1 inhibitor (0.1, 1, 10 nM) were treated for 7 h under serum free media. Cells were lysed with cold lysis buffer containing 25 mM HEPES pH 7.6, […] NaCl, 1% NP40, 1% sodium deoxycholate, 0.1% SDS, and protease inhibitor mixture (Bimake, Houston, USA) using sonicators. The cells were centrifuged at 15,000 rpm, 4° C. for 5 min. After protein concentration of the lysates (supernatants) was quantified using BCA assay (Thermo Fisher Scientific, Waltham, USA), lysates were mixed with LDS sample buffer and heating at […] for 10 min. (Invitrogen, California, USA). […] The membranes are placed in an image analyzer (Imagequant, LAS 500, GE Healthcare), connected to a computer which allows the image generation (software Image reader LAS 500).
In general terms: Immunoblotting shows a protein as a band on a membrane.

Experiment [2] addresses T1, RIPK1. Description: Cell-based necroptosis assay for RIPK1 activity (cell viability by CCK-8). The note with it: HT-29 cells; Z-VAD-FMK 20 μM, human TNFα 10 ng/ml, SM-164 100 nM; 24 h; read-out: Cell-base RIPK1 activity: Necroptosis. Here is the method:
as §1
To measure the activity of RIPK1 inhibitor in necroptotic cells, HT-29 cells were treated by control DMSO, human TNFα (Peprotech, Rocky Hill, USA), SM-164 (Biovision, California, USA) and a pan-caspase inhibitor Z-VAD-FMK (Invivogen, San Diego, USA). Cells were pretreated with Z-VAD-FMK 20 μM. After 30 min, human TNFα 10 ng/ml, SM-164 100 nM and RIPK1 Inhibitor (0.0001, 0.001, 0.01, 0.02, 0.05, 0.1, 1, 10 uM) were treated for 24 h. Cell viability was measured by Cell Counting Kit 8 (CCK-8) (Dong-in, Seoul, Korea).

For `CN1C(=O)[C@@H](NC(=O)n2cc(Cc3cccc(F)c3)cn2)COc2ccc(O[C@H]3CC[C@H](O)CC3)cc21` [Example 35, 4-(3-fluorobenzyl)-N—((S)-7-(((1r,4S)-4-hydroxycyclohexyl)oxy)-5-methyl-4-oxo-2,3,4,5-tetrahydrobenzo[b][1,4]oxazepin-3-yl)-1H-pyrazole-1-carboxamide], the IC50 on RIPK1 [1] and on RIPK1 [2] was less than 10 nM throughout.

On to `CN1C(=O)[C@@H](NC(=O)n2cc(Cc3cccc(F)c3)cn2)COc2ccc(OCC(=O)N3CCCCC3)cc21` [Example 36, (S)-4-(3-fluorobenzyl)-N-(5-methyl-4-oxo-7-(2-oxo-2-(piperidin-1-yl)ethoxy)-2,3,4,5-tetrahydrobenzo[b][1,4]oxazepin-3-yl)-1H-pyrazole-1-carboxamide], for which the IC50 at RIPK1 [1] and on RIPK1 [2] was less than 10 nM each time.

Turning to `CN1C(=O)[C@@H](NC(=O)n2cc(Cc3cccc(F)c3)cn2)COc2ccc(OCC(=O)N3CCC(C)(C)CC3)cc21` [Example 37, (S)—N-(7-(2-(4,4-dimethylpiperidin-1-yl)-2-oxoethoxy)-5-methyl-4-oxo-2,3,4,5-tetrahydrobenzo[b][1,4]oxazepin-3-yl)-4-(3-fluorobenzyl)-1H-pyrazole-1-carboxamide], the IC50 on RIPK1 [1] and on RIPK1 [2] was less than 10 nM each time.

As to `CN1C(=O)[C@@H](NC(=O)n2cc(Cc3cccc(F)c3)cn2)COc2ccc(OCC(=O)N3CCC(F)(F)CC3)cc21` [Example 38, (S)—N-(7-(2-(4,4-difluoropiperidin-1-yl)-2-oxoethoxy)-5-methyl-4-oxo-2,3,4,5-tetrahydrobenzo[b][1,4]oxazepin-3-yl)-4-(3-fluorobenzyl)-1H-pyrazole-1-carboxamide], the IC50 at RIPK1 [1] and on RIPK1 [2] was less than 10 nM each time.

Consider `CN1C(=O)[C@@H](NC(=O)n2cc(Cc3cccc(F)c3)cn2)COc2ccc(OCC(=O)N3CCOCC3)cc21` [Example 39, (S)-4-(3-fluorobenzyl)-N-(5-methyl-7-(2-morpholino-2-oxoethoxy)-4-oxo-2,3,4,5-tetrahydrobenzo[b][1,4]oxazepin-3-yl)-1H-pyrazole-1-carboxamide], for which the IC50 on RIPK1 [1] and on RIPK1 [2] was less than 10 nM each time.

With `CN1C(=O)[C@@H](NC(=O)n2cc(Cc3cccc(F)c3)cn2)COc2ccc(OCC(=O)N3CCC(O)CC3)cc21` [Example 40, (S)-4-(3-fluorobenzyl)-N-(7-(2-(4-hydroxypiperidin-1-yl)-2-oxoethoxy)-5-methyl-4-oxo-2,3,4,5-tetrahydrobenzo[b][1,4]oxazepin-3-yl)-1H-pyrazole-1-carboxamide], the IC50 on RIPK1 [1] and at RIPK1 [2] was less than 10 nM throughout.

With `CN1C(=O)[C@@H](NC(=O)n2cc(Cc3cccc(F)c3)cn2)COc2ccc(OCC(=O)N3CCC(C)(O)CC3)cc21` [Example 41, (S)-4-(3-fluorobenzyl)-N-(7-(2-(4-hydroxy-4-methylpiperidin-1-yl)-2-oxoethoxy)-5-methyl-4-oxo-2,3,4,5-tetrahydrobenzo[b][1,4]oxazepin-3-yl)-1H-pyrazole-1-carboxamide], the IC50 on RIPK1 [1] and on RIPK1 [2] was less than 10 nM in each case.

Regarding `CN1C(=O)[C@@H](NC(=O)n2cc(Cc3cccc(F)c3)cn2)COc2ccc(OC(C)(C)C(=O)N3CCC(C)(O)CC3)cc21` [Example 42, (S)-4-(3-fluorobenzyl)-N-(7-((1-(4-hydroxy-4-methylpiperidin-1-yl)-2-methyl-1-oxopropan-2-yl)oxy)-5-methyl-4-oxo-2,3,4,5-tetrahydrobenzo[b][1,4]oxazepin-3-yl)-1H-pyrazole-1-carboxamide], the IC50 on RIPK1 [1] and at RIPK1 [2] was 10 to 50 nM in each case.

Regarding `CN1C(=O)[C@@H](NC(=O)n2cc(Cc3cccc(F)c3)cn2)COc2ccc(OCC(=O)N3CCC(C(C)(C)O)CC3)cc21` [Example 43, (S)-4-(3-fluorobenzyl)-N-(7-(2-(4-(2-hydroxypropan-2-yl)piperidin-1-yl)-2-oxoethoxy)-5-methyl-4-oxo-2,3,4,5-tetrahydrobenzo[b][1,4]oxazepin-3-yl)-1H-pyrazole-1-carboxamide], the IC50 on RIPK1 [1] and at RIPK1 [2] was less than 10 nM each time.

With `CN1C(=O)[C@@H](NC(=O)n2cc(Cc3cccc(F)c3)cn2)COc2ccc(OCC(=O)N3CCCC3)cc21` [Example 44, (S)-4-(3-fluorobenzyl)-N-(5-methyl-4-oxo-7-(2-oxo-2-(pyrrolidin-1-yl)ethoxy)-2,3,4,5-tetrahydrobenzo[b][1,4]oxazepin-3-yl)-1H-pyrazole-1-carboxamide], the IC50 on RIPK1 [1] and at RIPK1 [2] was less than 10 nM in each case.

Consider `CN1C(=O)[C@@H](NC(=O)n2cc(Cc3cccc(F)c3)cn2)COc2ccc(OCC(=O)N3CCC(F)(F)C3)cc21` [Example 45, (S)—N-(7-(2-(3,3-difluoropyrrolidin-1-yl)-2-oxoethoxy)-5-methyl-4-oxo-2,3,4,5-tetrahydrobenzo[b][1,4]oxazepin-3-yl)-4-(3-fluorobenzyl)-1H-pyrazole-1-carboxamide], for which the IC50 at RIPK1 [1] and at RIPK1 [2] was less than 10 nM each time.

For `CN1C(=O)[C@@H](NC(=O)n2cc(Cc3cccc(F)c3)cn2)COc2ccc(OCC(=O)N3CC[C@H](O)C3)cc21` [Example 46, 4-(3-fluorobenzyl)-N—((S)-7-(2-((S)-3-hydroxypyrrolidin-1-yl)-2-oxoethoxy)-5-methyl-4-oxo-2,3,4,5-tetrahydrobenzo[b][1,4]oxazepin-3-yl)-1H-pyrazole-1-carboxamide], the IC50 was less than 10 nM on RIPK1 [1] and 10 to 50 nM on RIPK1 [2].

For `CN1C(=O)[C@@H](NC(=O)n2cc(Cc3cccc(F)c3)cn2)COc2ccc(OCC(=O)N3CC[C@@H](O)C3)cc21` [Example 47, 4-(3-fluorobenzyl)-N—((S)-7-(2-((R)-3-hydroxypyrrolidin-1-yl)-2-oxoethoxy)-5-methyl-4-oxo-2,3,4,5-tetrahydrobenzo[b][1,4]oxazepin-3-yl)-1H-pyrazole-1-carboxamide], the IC50 on RIPK1 [1] and on RIPK1 [2] was less than 10 nM throughout.

In the case of `CN1C(=O)[C@@H](NC(=O)n2cc(Cc3cccc(F)c3)cn2)COc2ccc(OCC(=O)N3CCC(C(C)(C)O)C3)cc21` (stereo partly drawn) [Example 48, 4-(3-fluorobenzyl)-N-((3S)-7-(2-(3-(2-hydroxypropan-2-yl)pyrrolidin-1-yl)-2-oxoethoxy)-5-methyl-4-oxo-2,3,4,5-tetrahydrobenzo[b][1,4]oxazepin-3-yl)-1H-pyrazole-1-carboxamide], the IC50 at RIPK1 [1] and at RIPK1 [2] was less than 10 nM throughout.

With `CN1C(=O)[C@@H](NC(=O)n2cc(Cc3cccc(F)c3)cn2)COc2ccc(OCC(=O)N3CC(C)(O)C3)cc21` [Example 49, (S)-4-(3-fluorobenzyl)-N-(7-(2-(3-hydroxy-3-methylazetidin-1-yl)-2-oxoethoxy)-5-methyl-4-oxo-2,3,4,5-tetrahydrobenzo[b][1,4]oxazepin-3-yl)-1H-pyrazole-1-carboxamide], the IC50 on RIPK1 [1] and at RIPK1 [2] was less than 10 nM each time.
